Reference: US20230355549A1, “METHOD OF PREVENTING KIDNEY INJURY DISRUPTION OF INTESTINAL LYMPHATICS” (Vanderbilt University, priority 2020, published 2023)
Where a name gives a salt, the structure may show the parent alone. Each block holds one compound with its values, some of them ahead of it.

Key:
Sprague Dawley rats = conditions: rat, in vivo, ip, 125 mg/kg
Protocol: Adult male Sprague Dawley rats (200-225 g, Charles River) were housed under a 12-h light/dark cycle with free access to normal rat chow and water. Kidney injury was induced by a single injection of puromycin […] (PAN) (125 mg/kg body weight, i.p.) while saline-injected rats served as controls (Cont). Eight days after injection, rats were sacrificed and blood, urine, and tissues were harvested. We also studied adult male (12 weeks old) Nphs1-hCD25 transgenic (NEP25, C57 bl/6 background) mice expressing human CD25 on podocytes can be selectively injured by injection of recombinant immunotoxin, anti-Tac (Fv)-PE38 (LMB2, 1 ng/g BW, i.v. generously provided by Dr. Ira Pastan) that results in proteinuria. These and wild type control mice were housed under normal conditions with free access to regular rodent chow and water. Two weeks after LMB2, mice were sacrificed and blood, urine and tissues harvested. All animal procedures were approved by the Institutional Animal Care and Use Committee at Vanderbilt University.
Mesenteric lymph was collected in a subset of conscious rats following cannulation of the mesenteric lymph duct. The rats were placed in Bollman cages in a temperature- and humidity-controlled incubator and lymph collected hourly for at least 3 h.
(§1) Albumin (Exocell), apoAI (Mybiosource), sphingosine-1 phosphate (S1P) (Mybiosource) and VEGF-C levels (Mybiosource) were measured by ELISA. Albuminuria was measured as urine albumin-to-creatinine ratio (ACR) (Nephrat II, Exocell) and QuantiChrom™ Creatinine Assay Kit (Bioassay Systems), respectively. Plasma and lymph total cholesterol and triglycerides were measured enzymatically (Cliniqa). HDL and LDL fractions were isolated from plasma and lymph by density-gradient ultracentrifugation after adjustment with potassium bromide. Lipoprotein particle size was evaluated by NMR methodology (Liposcience). Colorimetric assays were used to measure protein (BCA, ThermoFisher). Lipoproteins in plasma and lymph were separated by size-exclusion chromatography (SEC) using an Akta Pure fast-protein liquid chromatography (FPLC) system (GE Healthcare). Total IsoLG-protein adduct by LC/MS was measured as IsoLG-lysine after complete proteolytic digestion of lymph samples.

ileal organoids = experiment: IsoLG adduct production in cultured ileal organoids (enteroids); type: cell-based; conditions: 1 mmol/L, 3 days, vs vehicle, FIG. 4C
Protocol: as §1
Intact perfused intestine was used to generate ileal organoids. Cultured ileal organoids were incubated in medium with or without indoxyl sulfate (1 mmol/L, Sigma) for 3 days. Total protein was extracted for quantitation of IsoLG.

THP-1 cells = experiment: VEGFC mRNA in THP-1 derived macrophages; type: cell-based; conditions: apoAI 10 μg/ml, IsoLG 1 μM/L, 48 h, vs unmodified apoAI, FIG. 6D
Protocol: THP-1 cells were plated and differentiated into macrophages by […] containing 10% FBS and 50 ng/ml phorbol 12-myristate 13-acetate for 3 days. Cells were incubated with unmodified or IsoLG-modified apoAI (apoAI: 10 μg/ml, IsoLG: 1 μM/L) for 48 h. VEGFC mRNA was assessed by RT-PCR.

[1] = system: Primary adult dermal lymphatic endothelial cells (LECs); experiment: Cultured lymphatic endothelial cells (LECs) exposed to IsoLG-modified apoAI; type: cell-based; conditions: apoAI 10 μg/ml, IsoLG 1 μM/L, 18 h, vs unmodified apoAI
Protocol: Primary adult dermal lymphatic endothelial cells (LECs) (HMVEC-DLyAd, Lonza) were cultured with conditioned growth medium (Lonza). Cells at passage 5-6 with ˜70% confluence were starved in serum-free medium overnight, then incubated with unmodified or IsoLG-modified apoAI (apoAI: 10 μg/ml, IsoLG: 1 μM/L) for 18 h. […] Quantification of eNOS (Nos3) and β-actin (ACTB) mRNA was performed by RT-PCR and production of superoxide was assessed by high-performance liquid chromatography.

[2] = system: isolated mesenteric lymphatic vessels; experiment: Lymphatic dynamics ex vivo, isolated mesenteric lymphatic vessels
Protocol: Mesenteric lymphatic vessels were collected and mounted in a perfusion chamber. Chambers were placed on inverted microscopes equipped with a digital image capture system (IonOptix) to record pre-valve intraluminal diameters and frequency of contractions. Vessels were warmed to 37° C., pressurized to 0.5 mmHg using a column of Krebs buffer, and allowed to equilibrate (20-60 minutes). Viable vessels were then pressurized in a stepwise manner to a constant pressure of 3.5 mmHg, then exposed to purified apoAI or modified apoAI using 1 molar equivalent synthetic IsoLG or vehicle (DMSO). Fresh Krebs buffer was circulated to facilitate wash out. Next vessels were exposed to IsoLG-modified apoAI. After each challenge, lumen diameters were allowed to plateau (40-60 minutes).

ACR (albumin/creatinine concentration ratio) (Sprague Dawley rats): 126.652 ± 13.283 mg/mg
Plasma Albumin (Sprague Dawley rats): 350.7 ± 27.3 mg/dL
Plasma Cholesterol (Sprague Dawley rats): 236.6 ± 36.8 mg/dL
Plasma Triglyceride (Sprague Dawley rats): 132.1 ± 19.2 mg/dL
Compound: CN(C)c1ncnc2c1ncn2[C@@H]1O[C@H](CO)[C@@H](N)[C@H]1O [PAN, puromycin aminoglycoside]

Compound: O=S(=O)(O)Oc1c[nH]c2ccccc12 [indoxyl sulfate]
IsoLG adduct production (ileal organoids): significantly increased

Compound: IsoLG-apoAI: purified apoAI modified using 1 molar equivalent synthetic IsoLG
VEGFC mRNA expression (THP-1 cells): significantly increased
production of ROS ([1]; FIG. 5A): significantly greater production of ROS
eNOS (Nos3) gene expression ([1]; FIG. 5B): increased Nos3
end-systolic diameter (ESD) ([2]; FIG. 5D): failed to significantly alter
end-diastolic diameter (EDD) ([2]; FIG. 5E): significantly decreased
amplitude of contraction ([2]; FIG. 5F): significantly reduced
frequency of contractions ([2]; vs unmodified apoAI, FIG. 5C): increased frequency of contractions
